Assay results reported in patent publication US20240085429A1, “ALTERING PROTEIN FUNCTION BY PHARMACOLOGICAL TARGETING OF MEMBRANE DOMAINS” (University of Virginia Patent Foundation, priority 2021, published 2024).
Counter-ions that a name gives are not always drawn.

Experiments:
[1] = system: GPMVs isolated from HeLa cells; assay: High-throughput screen of the Cayman bioactive lipid library for effects on GPMV phase behavior (% phase separated vesicles, NBD-DSPE phase preference); design: species or system human; settings: for Effect on % phase separated vesicles: final drug concentration 1 μM, NBD-DSPE channel; for % phase separated z-score / Pordered z-score: Table 4; for Pordered z-score: NBD-DSPE
Method: This approach is not practical for high throughput screening applications, which typically are performed at a single temperature. Changes in the percentage of phase-separated GPMVs were monitored at a single temperature in response to the addition of small molecules as a surrogate for measuring Tmisc directly (FIG. 1A). This approach requires that a significant fraction of GPMVs are phase separated under control conditions, such that experimentally-induced changes can be readily detected.
In phase separated vesicles these markers are enriched in their preferred domains, such that a given vesicle contains a co-existing NBD-DSPE-rich phase and a DiD-rich phase. In contrast, NBD-DSPE and DiD colocalize in a single uniform phase in GPMVs that are not phase separated. We also optimized conditions to isolate and plate GPMVs in multi-well plates.
To provide proof-of-concept, the Cayman lipid library containing ˜850 bioactive lipid-like compounds in the Vanderbilt High-throughput Screening Facility was screened, using […] of each compound across three independent screens. All screens were carried out using an automated microscope/high-content imaging system and robotic plate handler at RT. […] Compounds were initially scored based on their capacity to alter the percentage of phase separated vesicles (FIG. 2A).
HeLa cells were obtained from ATCC (cat #CCL-2) and cultured at 37° C. in 5% CO2 in a humidified tissue culture incubator. […] In brief, cells were plated in 150 mm tissue culture dishes the day before the experiment, to yield a confluence of 70-80% the day of the experiment. To generate GPMVs, cells were rinsed twice in 10 ml of GPMV buffer (2 mM DTT, 25 mM formaldehyde, 150 mM NaCl, 10 mM HEPES, 2 mM CaCl2), pH=7.4) and subsequently incubated in 12 ml of GPMV buffer at 37° C. with gentle shaking at 70 rpm for 1.5 h. The raft marker NBD-DSPE (1,2-distearoyl-sn-glycero-3-phosphoethanolamine-N-(7-nitro-2-1,3-benzoxadiazol-4-yl; Avanti Polar Lipids) and the non-raft marker DiD (1,1′-dioctadecyl-3,3,3′,3′-tetramethylindodicarbocyanine perchlorate; cat #D307 Thermo Scientific) were added from stock solutions in ethanol to the GPMV suspension at final concentrations of 5-6 μg/ml and 1 μg/ml, respectively, for the initial screenings. For some experiments, cells were prelabelled with 5 μg/ml DiD for 8 min at 4° C. and washed several times prior to GPMVs generation. Screening was performed the same day that GPMVs were generated.
[…] GPMVs suspension in GPMV buffer was then added to each well of a 96-well plate to obtain a final drug concentration of 1 μM. The GPMVs were allowed to settle to the bottom of the plates for 1.5 h prior to imaging. Samples were prepared and imaged at RT. The screen was repeated on three different days using three separately prepared batches of GPMVs (3 biological replicates).
Image acquisition was performed with an ImageXpress Micro XL automated microscope (Molecular Devices) using a Nikon 40X 0.6 NA Super Plan Fluor ELWD objective and a Lumencor Sola solid-state light source. Laser autofocus was employed at each site to obtain the best focus z-plane for each channel. […] Sixteen sites were captured per well using a 4.2 MP widefield scientific cMOS camera with a camera binning of 1. Each plate took approximately 1.3 h to image. Multiple plates were loaded to a plate carousel (ThermoScientific), shuttled to/from the ImageXpress via a ThermoScientific CRS F3 robot arm, and automatically run through the Momentum scheduling software (Thermo). To analyze the data, images and metadata were exported as TIFF files and subjected to image analysis using a custom MATLAB-based program as described below.

GPMVs from HeLa cells = assay: Di4 fluorescence lifetime imaging (lipid packing in GPMVs); design: species or system human; settings: TLCK 1 μM, C6-ceramide 1 μM, MβCD 5 mM; for phase state of GPMVs in FLIM images: room temperature; for average Di4 lifetime: single-phase GPMVs (MβCD: average across all domains), control 2.53±0.06 ns, mean±SD
From the text: It was also of interest how TLCK and C6-ceramide impact other properties of the membrane compared to treatments such as cholesterol depletion that are commonly used to disrupt rafts in cells (Zidovetzki & Levitan, 2007). To test this, we examined their effects on membrane lipid packing and fluidity using a fluorescent reporter of membrane packing, Di-4-[…] (Di4) (Jin et al., 2006; Owen et al., 2006; Sezgin et al., 2014; Levental et al., 2020b; Lorent et al., 2020). As a control, we subjected GPMVs to cholesterol depletion using 5 mM MβCD. The photophysical characteristics of Di4, including its lifetime, are dependent on lipid packing in membranes. In particular, a lower Di4 lifetime is indicative of loose packing and a more fluid membrane environment whereas higher Di4 lifetimes point to a less fluid membranes and tighter lipid packing. […] The phase separated vesicles were characterized by two populations of lifetimes, corresponding to the Lo phase (higher lifetime) and Ld phase (lower lifetime) (FIGS. 11A-11F).
GPMVs were prepared as previously described by Sezgin, E, et al., Nat Protoc 2012, 7 (6), 1042-51. In brief, HeLa cells were washed twice with GPMV buffer (2 mM CaCl2)/10 mM HEPES/0.15 M NaCl, pH 7.4), then washed twice with GPMV active buffer (GPMV buffer containing 25 mM formaldehyde and 2 mM DTT). Cells were then incubated with GPMV active buffer for 1-2 hours at 37° C. with shaking at 90-95 RPM. The GPMV-containing supernatant was decanted into a centrifuge tube and GPMVs were allowed to settle for 1 h. Aliquots of GPMVs (100 μL) were pipetted from the bottom of the Eppendorf tube into separate tubes and treated with DMSO (0.1%), 1 μM TLCK, 1 μM C6-ceramide or 5 mM MbCD. After 5 min, Di 4 […] (Di4) (Thermo Scientific) was added to a final concentration of […] from a stock solution of 1 mg/mL Di4 in ethanol. The GPMVs were then sandwiched between two coverslips coated with 1 mg/mL bovine serum albumin (BSA) solution and allowed to incubate for an additional 20 min prior to lifetime measurements.
Di4 lifetime images were performed on a Leica TCS SP8 system comprising a Leica DMi8 inverted scanning confocal microscope with time-correlated single photon counting (TC-SPC) system and an 80 MHz-pulsed supercontinuum white light laser which allows continuously tunable excitation in the visible range coupled with filter-free detection. Samples were imaged using an HC PL APO CS2 63X/1.20 water objective. Di4 was excited at 488 nm and the emission was collected in the 550-800 nm range. The photon count rate was kept under 0.5 photons per laser pulse by adjusting the laser power, and sufficient frames were cumulatively acquired to obtain at least 100 photons per pixel. The fluorescence decay curves were fit with a bi-exponential re-convolution function adjusted to the instrument response function, and the average intensity-weighted lifetime was calculated for individual vesicles or area of interest and represented in the FLIM images as Di4 lifetime. Data are reported from two independent experiments. Statistical analyses were performed using GraphPad Prism 9.3.0.

Row | SMILES | Effect on % phase separated vesicles ([1]; HeLa GPMVs, RT) | % phase separated z-score ([1]; HeLa GPMVs, final 1 μM, RT) | Pordered z-score ([1]; HeLa GPMVs, final 1 μM, RT) | phase state of GPMVs in FLIM images (GPMVs from HeLa cells) | average Di4 lifetime (GPMVs from HeLa cells) [ns] | Effect on Pang(ϕ) ([1]; NBD-DSPE raft phase preference, HeLa GPMVs, final 1 μM, RT) | raft modulation in the GPMV model ([1]; screen result in words)
1 | CCCCCCCCCCCCC/C=C/[C@@H](O)[C@H](CO)NC(=O)CCCCC [C6 Ceramide (d18:1/6:0)] | ↓ | −3.01 | 0.76 | contained a single membrane phase | 2.53±0.11 | – | –
2 | Cc1ccc(S(=O)(=O)N[C@@H](CCCCN)C(=O)CCl)cc1 [TLCK hydrochloride, Nα-Tosyl-Lys Chloromethyl Ketone] | ↑ | 6.73 | 5.69 | mixture of phase separated | 2.43±0.06 | ↑ | potent raft stabilizer
